Marks after values point to notes of the source that are not given here.
Key:
[1] = MTT assay, cell viability; details: male, human, peripheral blood mononuclear cells (PBMCs)
Procedure: (§1) Blood was collected by venipuncture into heparinized vacutainers (BD Vacutainer Systems, Plymouth, UK), stored at room temperature, protected from light, and processed within 2 h. PBMCs were isolated by density gradient centrifugation (400 × g, 30 min) with separation medium (Histopaque® - 1077). After isolation, PBMCs were stained with Trypan blue and counted using a hemocytometer.
(§2) The MTT assay is regarded as a sensitive and reliable colorimetric assay to quantify cellular viability, proliferation, and activation. It is based on the ability of mitochondrial nicotinamide adenine dinucleotide phosphate (NADPH)-dependent cellular oxidoreductase enzymes present in viable cells to reduce soluble tetrazolium salt (3-[4,5-dimethylthiazol-2-yl]-2,5 diphenyl tetrazolium bromide) to insoluble, colored formazan compounds [26].
(§3) The MTT assay was conducted in triplicate in the 96-well plate, with two technical replicates. The seeding density was 6.25 × 10^3 cells per well.
(§4) After 72 h of incubation, the reagent MTT was added to samples for 3 h at 37 ^∘C. DMSO was added to solubilize the formazan crystals followed by further incubation for 30 and 60 min at 37 ^∘C. The optical density was measured at 570 nm using the multiplate reader Multi-Scan FC (Thermo Fisher Scientific, USA). The cell viability was determined according to (5): (5) [drawing 5]

PBMCs [2] = assay: Alkaline comet assay, tail intensity; type: cell-based, human; details: 3 h
Procedure: as §1
The comet assay is a sensitive technique for measuring DNA damage at the level of the individual eukaryotic cell. It is based upon the fact that denatured cleaved DNA fragments, or damaged DNA, migrate out of the cell at a different rate during electrophoresis than undamaged DNA [32]. Damaged DNA creates a “comet tail,” while the undamaged DNA remains within the cell membrane creating the “comet head.” The Comet assay is most commonly run under alkaline conditions to detect single and double-stranded DNA breaks.
PBMCs were isolated as previously described and then cultivated in PB-MAX™ Karyotyping Medium and incubated for 24 h at 37 ^∘C. […] Positive and negative controls were also set up equally. Treated cells were incubated at 37 ^∘C for 3 h and then centrifuged at 800 rpm (120 × g) for 5 min. The supernatant was removed and the cells were subsequently resuspended.
In a tube containing 120 µL of 0.7% LMPA, 80 µL of the sample was added for each tested concentration and controls. Prepared samples were applied to slides precoated with a 1% NMPA and covered with coverslips. After gel polymerization, coverslips were removed and slides were immersed in lysis buffer overnight at 4 ^∘C. Afterward, slides were washed with distilled water and placed into the electrophoresis tank with an electrophoresis solution (200 mM Na2EDTA, 10 M NaOH, and distilled water, pH > 13) for 20 min, followed by 20 min of electrophoresis (1 V/cm). After electrophoresis, slides were gently rinsed in the following sequences: phosphate-buffered saline (PBS) for 5 min, 70% (V/V) ethanol for 5 min, and finally 96% (V/V) ethanol for 15 min.
Prior to the fluorescent microscope analysis (U-MNU2; Olympus BX51, Tokyo, Japan), slides were rehydrated and stained with DAPI (1 µg/mL). DNA damage in treated cells was evaluated using Comet Assay IV software (Instem LSS Ltd., Staffordshire, UK), by measuring tail intensity (TI%), the percent of DNA in the tail of comets. For each concentration, as well as for positive and negative controls, at least 200 comets were analyzed. The Minimum Information for Reporting Comet Assay (MIRCA) protocol was used to report the results.

PBMCs [3] = assay: Cytokinesis block micronucleus cytome (CBMN-cyt) assay; type: cell-based, human; design: Total MNi (mean ± SD) / BN cells with MNi (mean ± SD) / NBUDs (mean ± SD) / NPBs (mean ± SD): unit not given here
Excerpt: DNA damage events were scored specifically in once-divided binucleated (BN) cells and included micronuclei (MNi), a biomarker of chromosome breakage and/or whole chromosome loss, nucleoplasmic bridges (NPBs), a biomarker of DNA misrepair and/or telomere end-fusions, and nuclear buds (NBUDs), a biomarker of elimination of amplified DNA and/or DNA repair complexes. Cytostatic and cytotoxic effects were examined by calculating the nuclear division index (NDI) and nuclear division cytotoxicity index (NDCI) based on the proportion of mono-, bi-, and multinucleated cells and necrotic and/or apoptotic cell ratios, respectively.
Whole blood, 400 µL per each treatment, was cultured in PB-MAX™ Karyotyping Medium for 72 h at 37 ^∘C. […] Untreated cultures were set up as negative controls. Cytochalasin B was added to the final concentration of 4.5 µg/mL to block cytokinesis.
After the cultivation period, cultures were centrifuged for 10 min at 1000 rpm (188 × g) and subjected to hypotonic treatment with 0.56% KCl and centrifuged immediately after the hypotonic addition. Hypotonic treatment was followed by three fixations in ice-cold glacial acetic acid + ethanol (1:3) fresh fixative. The fixed lymphocyte solution was dropped on coded microscope slides. Air-dried slides were stained in 5% Giemsa for 7 min. […] Frequencies of mononuclear, binuclear, trinuclear, and quadrinuclear cells, as well as apoptotic and necrotic cells, were scored in a total number of at least 500 cells. All genotoxicity and cytotoxicity parameters were recognized according to the criteria given by Fenech.

human PBMCs = assay: MTT assay, cell viability; details: human PBMCs, 72 h, 36.36–109.09 ng/mL
Procedure: as §1, §2, §3, §4

[4] = β-CD […] (w/w), 25 mg DMH/mL of water
Procedure: Phase solubility studies were performed according to the Higuchi and Connors’ method [21]. […] Sample solutions were prepared as described by Hindija et al. [22]. […] Each measurement was run in triplicate.
Phase solubility studies, where the change of drug solubility corresponds to CD concentration, were conducted to assess the binding characteristics of the drug and CD and to determine the values of stability constant (Ks), complexation efficacy (CE), and utility number (UCD).
The utility number (UCD) is expressed as: (4) [drawing 4] where mD and mCD are the drug dose and workable amount of CD in mg, respectively, while MWD and MWCD stand for molecular weights of D and CD [22].

HEK293 cells = tested on: HEK293 cells; design: method as in earlier work; details: cited from earlier work
HeLa cells = tested on: HeLa cells; design: method as in PMID 19616959; details: cited from earlier work
LO2 cells = tested on: LO2 cells; design: method as in PMID 26256188; details: cited from earlier work
[5] = tested on: endothelial (HUVEC) cells; details: cited from earlier work
Calu-3 cells = tested on: Calu-3 cells; design: method as in PMID 18160169; details: cited from earlier work
mouse retinal cells = tested on: mouse retinal cells; design: method as in PMID 33803405; details: cited from earlier work
HCT-116 cancer cells = details: cited from earlier work
MDA-MB-231 cancer cells = details: cited from earlier work

Q: With O=c1[nH]cc(F)c(=O)[nH]1 [5-FU, 5-fluorouracil] as the molecule, how does the viability at 72 h, 100 µg/mL [1] read?
A: 64.8%

Q: What about the “Genotoxic effects in alkaline comet assay” value (PBMCs [2]) of the same molecule?
A: genotoxic effects were observed

Q: What about the “Tail intensity (mean ± SD)” value (PBMCs [2]; 5-FU 100 µg/mL) of the same molecule?
A: 5.93 ± 0.23%

Q: What about the “BN cells with MNi (mean ± SD)” value (PBMCs [3]; positive control) of the same molecule?
A: 19 ± 6.56

Q: What about the “NBUDs (mean ± SD)” value (PBMCs [3]; positive control) of the same molecule?
A: 3.5 ± 1.92

Q: And the “NDCI, nuclear division cytotoxicity index (mean ± SD)” value (PBMCs [3]; positive control)?
A: 1.577 ± 0.01

Q: And the “NDI, nuclear division index (mean ± SD)” value (PBMCs [3]; positive control)?
A: 1.612 ± 0.01

Q: What about the “NPBs (mean ± SD)” value (PBMCs [3]; positive control) of the same molecule?
A: 1 ± 0.82

Q: And the “Total MNi (mean ± SD)” value (PBMCs [3]; positive control)?
A: 19.25 ± 6.65

Q: Which “Difference in cell viability versus negative control (Tukey–Kramer)” value (human PBMCs) does the source give for CN(C)CCOC(c1ccccc1)c1ccccc1.Cn1c(=O)c2[nH]c(Cl)nc2n(C)c1=O [DMH, 2-benzhydryloxy-N,N-dimethylethanamine; 8-chloro-1,3-dimethyl-7H-purine-2,6-dione] here?
A: no statistically significant differences

Q: What about the “NBUDs (mean ± SD)” value (PBMCs [3]; DMH 72.73 ng/mL) of the same molecule?
A: 0.75 ± 0.96^s

Q: And the “NPBs (mean ± SD)” value (PBMCs [3]; DMH 72.73 ng/mL)?
A: 0.25 ± 0.5

Q: And the “Total MNi (mean ± SD)” value (PBMCs [3]; DMH 72.73 ng/mL, BN cells)?
A: 4.25 ± 0.96^r, s

Q: And the “NBUDs (mean ± SD)” value (PBMCs [3]; DMH 90.91 ng/mL)?
A: 1.75 ± 1.26^s

Q: And the “NPBs (mean ± SD)” value (PBMCs [3]; DMH 90.91 ng/mL)?
A: 0.25 ± 0.5

Q: And the “Total MNi (mean ± SD)” value (PBMCs [3]; DMH 90.91 ng/mL, BN cells)?
A: 6.5 ± 1.92^s

Q: What about the “NBUDs (mean ± SD)” value (PBMCs [3]; DMH 109.09 ng/mL) of the same molecule?
A: 1 ± 0.82^s

Q: And the “NPBs (mean ± SD)” value (PBMCs [3]; DMH 109.09 ng/mL)?
A: 0.25 ± 0.5

Q: What about the “Total MNi (mean ± SD)” value (PBMCs [3]; DMH 109.09 ng/mL, BN cells) of the same molecule?
A: 6.5 ± 2.38^s

Q: What about the “UCD, utility number” value [4] of the same molecule?
A: 1.156

Q: What about the “Effect on cell viability” value (HEK293 cells) of the same molecule?
A: may slightly affect the viability

Q: With OC[C@H]1O[C@@H]2O[C@H]3[C@H](O)[C@@H](O)[C@@H](O[C@H]4[C@H](O)[C@@H](O)[C@@H](O[C@H]5[C@H](O)[C@@H](O)[C@@H](O[C@H]6[C@H](O)[C@@H](O)[C@@H](O[C@H]7[C@H](O)[C@@H](O)[C@@H](O[C@H]8[C@H](O)[C@@H](O)[C@@H](O[C@H]1[C@H](O)[C@H]2O)O[C@@H]8CO)O[C@@H]7CO)O[C@@H]6CO)O[C@@H]5CO)O[C@@H]4CO)O[C@@H]3CO [β-CD, β-cyclodextrin] as the molecule, how does the viability at 72 h, 1000 ng/mL [1] read?
A: 90.3%

Q: What about the “Tail intensity (mean ± SD)” value (PBMCs [2]; concentration of β-CD 250 ng/mL) of the same molecule?
A: 3.02 ± 1.45%

Q: And the “Tail intensity (mean ± SD)” value (PBMCs [2]; concentration of β-CD 500 ng/mL)?
A: 3.22 ± 1.09%

Q: And the “Tail intensity (mean ± SD)” value (PBMCs [2]; concentration of β-CD 750 ng/mL)?
A: 3.25 ± 1.02%

Q: And the “Tail intensity (mean ± SD)” value (PBMCs [2]; concentration of β-CD 1000 ng/mL)?
A: 3.42 ± 1.08%

Q: And the “Effect on cell viability” value (HeLa cells)?
A: does not affect cell viability

Q: What about the “Effect on cell viability” value (LO2 cells) of the same molecule?
A: does not affect cell viability

Q: And the “Effect on cell viability” value [5]?
A: does not affect cell viability

Q: And the “Effect on cell viability” value (Calu-3 cells)?
A: does not affect cell viability

Q: And the “Effect on cell viability” value (mouse retinal cells)?
A: does not affect cell viability

Q: What about the “Effect on cell viability” value (HCT-116 cancer cells) of the same molecule?
A: does not affect cell viability

Q: What about the “Effect on cell viability” value (MDA-MB-231 cancer cells) of the same molecule?
A: does not affect cell viability

— PMC11496845, “Preparation, characterization, and in vitro cytogenotoxic evaluation of a novel dimenhydrinate-β-cyclodextrin inclusion complex” (Biomolecules and Biomedicine, 2024)
